{"source": "ChEMBL document CHEMBL2321869", "about": "“Ion channels as therapeutic targets: a drug discovery perspective” (J Med Chem, 2013)", "key": {"[1]": {"target": "Inward rectifier potassium channel 4 (Homo sapiens, UniProt P48050)", "sequence (P48050 whole entry)": "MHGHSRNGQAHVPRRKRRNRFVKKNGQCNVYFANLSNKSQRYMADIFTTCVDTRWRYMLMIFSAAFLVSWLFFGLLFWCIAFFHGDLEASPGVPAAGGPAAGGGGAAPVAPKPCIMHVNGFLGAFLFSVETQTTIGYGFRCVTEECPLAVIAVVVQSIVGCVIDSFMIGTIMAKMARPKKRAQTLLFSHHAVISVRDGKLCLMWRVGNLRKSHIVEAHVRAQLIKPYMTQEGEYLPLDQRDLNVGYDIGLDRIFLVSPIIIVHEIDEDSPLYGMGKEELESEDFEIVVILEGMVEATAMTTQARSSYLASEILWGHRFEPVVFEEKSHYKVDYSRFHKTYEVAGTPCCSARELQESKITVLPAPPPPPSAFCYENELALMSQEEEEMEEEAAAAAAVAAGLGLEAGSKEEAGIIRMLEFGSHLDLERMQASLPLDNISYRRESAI", "experiment": "Inhibition of Kir2.3 (unknown origin)"}, "[2]": {"target": "Neuronal acetylcholine receptor; alpha4/beta2 (Homo sapiens, UniProt P17787+P43681)", "experiment": "Agonist activity at human alpha4beta2 nAChR expressed in HEK293 cells incubated for 5 mins measured every second for 1 mins followed by every 5 secs for 4 mins by calcium flux assay", "format": "cell-based"}, "[3]": {"experiment": "Agonist activity at AMPA receptor in rat DRG neurons by patch clamp technique", "details": "DRG neuron"}, "[4]": {"species_on_record": "Rattus norvegicus", "experiment": "Selectivity ratio of EC50 for AMPA receptor in rat hippocampal neurons to EC50 for AMPA receptor in rat DRG neurons", "format": "tissue-based", "details": "Hippocampus"}, "[5]": {"species_on_record": "Homo sapiens", "experiment": "Selectivity ratio of IC50 for human voltage-gated Na channel 1.7 to IC50 for human voltage-gated Na channel 1.8"}, "[6]": {"species_on_record": "Homo sapiens", "experiment": "Selectivity ratio of IC50 for human voltage-gated Na channel 1.1 to IC50 for human voltage-gated Na channel 1.8"}, "[7]": {"species_on_record": "Homo sapiens", "experiment": "Selectivity ratio of IC50 for human voltage-gated Na channel 1.5 to IC50 for human voltage-gated Na channel 1.8"}, "[8]": {"species_on_record": "Homo sapiens", "experiment": "Selectivity ratio of IC50 for human voltage-gated Na channel 1.5 to IC50 for human voltage-gated Na channel 1.3"}, "[9]": {"target": "Sodium channel protein type 3 subunit alpha (Homo sapiens, UniProt Q9NY46)", "experiment": "Inhibition of human voltage-gated Na channel 1.3"}, "[10]": {"species_on_record": "Mus musculus", "experiment": "Selectivity ratio of EC50 for mouse voltage-gated K channel 1.3 to EC50 for mouse voltage-gated K channel 1.7"}, "[11]": {"experiment": "Selectivity ratio of EC50 for mouse voltage-gated K channel 1.3 to EC50 for human voltage-gated K channel 1.4"}, "[12]": {"species_on_record": "Mus musculus", "experiment": "Selectivity ratio of EC50 for mouse voltage-gated K channel 1.3 to EC50 for mouse voltage-gated K channel 1.1"}, "[13]": {"experiment": "Selectivity ratio of EC50 for mouse voltage-gated K channel 1.3 to EC50 for rat voltage-gated K channel 1.2"}, "[14]": {"target": "T1, Gamma-aminobutyric acid receptor subunit alpha-5 (Homo sapiens, UniProt P31644)", "T1 sequence (P31644 whole entry)": "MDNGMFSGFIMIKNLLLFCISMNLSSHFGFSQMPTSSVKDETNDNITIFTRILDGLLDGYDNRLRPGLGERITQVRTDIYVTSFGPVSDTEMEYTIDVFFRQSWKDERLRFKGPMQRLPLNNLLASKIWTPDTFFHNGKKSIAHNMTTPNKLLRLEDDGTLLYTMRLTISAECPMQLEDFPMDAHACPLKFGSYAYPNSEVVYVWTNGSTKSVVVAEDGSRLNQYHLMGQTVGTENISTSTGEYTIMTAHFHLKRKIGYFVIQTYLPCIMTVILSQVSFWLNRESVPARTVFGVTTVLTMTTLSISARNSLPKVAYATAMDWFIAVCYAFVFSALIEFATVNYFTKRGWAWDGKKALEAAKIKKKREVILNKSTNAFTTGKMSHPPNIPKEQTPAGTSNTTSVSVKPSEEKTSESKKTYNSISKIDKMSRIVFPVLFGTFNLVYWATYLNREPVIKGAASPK", "experiment": "Positive allosteric modulation of GABAA alpha5 (unknown origin)"}, "[15]": {"target": "T2, Gamma-aminobutyric acid receptor subunit alpha-2 (Homo sapiens) (UniProt P47869)", "T2 sequence (whole entry)": "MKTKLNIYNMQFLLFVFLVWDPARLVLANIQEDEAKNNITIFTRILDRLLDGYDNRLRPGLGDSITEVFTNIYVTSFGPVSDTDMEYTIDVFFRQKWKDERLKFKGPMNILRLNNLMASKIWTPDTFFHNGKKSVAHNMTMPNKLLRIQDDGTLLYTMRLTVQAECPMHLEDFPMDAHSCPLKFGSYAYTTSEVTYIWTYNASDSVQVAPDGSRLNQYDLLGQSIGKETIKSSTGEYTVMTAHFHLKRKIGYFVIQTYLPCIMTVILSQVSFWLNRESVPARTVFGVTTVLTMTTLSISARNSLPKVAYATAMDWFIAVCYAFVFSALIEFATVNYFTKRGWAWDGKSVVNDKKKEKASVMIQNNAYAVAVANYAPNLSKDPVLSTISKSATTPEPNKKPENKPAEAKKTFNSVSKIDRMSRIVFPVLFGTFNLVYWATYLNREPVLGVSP", "experiment": "Positive allosteric modulation of GABAA alpha2 (unknown origin) relative to control"}, "[16]": {"target": "T3, Gamma-aminobutyric acid receptor subunit alpha-3 (Homo sapiens, UniProt P34903)", "T3 sequence (P34903 whole entry)": "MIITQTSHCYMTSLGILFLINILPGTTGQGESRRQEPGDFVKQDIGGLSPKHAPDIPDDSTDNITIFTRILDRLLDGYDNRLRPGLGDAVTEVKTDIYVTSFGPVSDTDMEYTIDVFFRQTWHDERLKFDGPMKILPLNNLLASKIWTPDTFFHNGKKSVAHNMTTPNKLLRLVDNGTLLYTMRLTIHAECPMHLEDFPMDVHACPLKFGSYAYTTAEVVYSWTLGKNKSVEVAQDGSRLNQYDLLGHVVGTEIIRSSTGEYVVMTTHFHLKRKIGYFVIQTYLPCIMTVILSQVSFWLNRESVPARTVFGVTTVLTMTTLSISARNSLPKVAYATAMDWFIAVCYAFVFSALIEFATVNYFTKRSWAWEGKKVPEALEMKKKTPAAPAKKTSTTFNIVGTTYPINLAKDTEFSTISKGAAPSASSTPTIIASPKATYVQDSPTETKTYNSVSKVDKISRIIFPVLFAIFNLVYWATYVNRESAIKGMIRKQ", "experiment": "Positive allosteric modulation of GABAA alpha3 (unknown origin)"}, "[17]": {"target": "Gamma-aminobutyric acid receptor subunit alpha-3 (Homo sapiens) (UniProt P34903)", "experiment": "Positive allosteric modulation of GABAA alpha3 (unknown origin) relative to control"}, "[18]": {"target": "T4, Gamma-aminobutyric acid receptor subunit alpha-2 (Homo sapiens, UniProt P47869)", "T4 sequence (P47869 whole entry)": "T2 sequence (whole entry)", "experiment": "Positive allosteric modulation of GABAA alpha2 (unknown origin)"}, "[19]": {"target": "Gamma-aminobutyric acid receptor subunit alpha-5 (Homo sapiens) (UniProt P31644)", "experiment": "Positive allosteric modulation of GABAA alpha5 (unknown origin) relative to control"}, "[20]": {"target": "Potassium channel subfamily K member 3 (Homo sapiens, UniProt O14649)", "sequence (O14649 whole entry)": "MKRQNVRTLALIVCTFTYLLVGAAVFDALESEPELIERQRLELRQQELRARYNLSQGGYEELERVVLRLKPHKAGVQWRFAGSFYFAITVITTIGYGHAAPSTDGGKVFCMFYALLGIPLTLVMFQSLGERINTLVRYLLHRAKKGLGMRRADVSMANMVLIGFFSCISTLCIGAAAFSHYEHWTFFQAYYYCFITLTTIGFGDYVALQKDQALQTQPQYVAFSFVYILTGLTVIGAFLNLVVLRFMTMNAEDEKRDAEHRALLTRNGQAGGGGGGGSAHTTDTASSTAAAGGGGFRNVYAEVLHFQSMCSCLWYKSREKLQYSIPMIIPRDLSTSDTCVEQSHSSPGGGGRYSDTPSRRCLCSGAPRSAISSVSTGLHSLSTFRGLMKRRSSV", "experiment": "Inhibition of TASK-1 (unknown origin)"}, "[21]": {"species_on_record": "Homo sapiens", "experiment": "Selectivity ratio of IC50 for voltage-gated Na channel (unknown origin) to IC50 for voltage-gated K channel 2.2 (unknown origin)"}, "[22]": {"target": "Potassium voltage-gated channel subfamily B member 2 (Homo sapiens, UniProt Q92953)", "sequence (Q92953 whole entry)": "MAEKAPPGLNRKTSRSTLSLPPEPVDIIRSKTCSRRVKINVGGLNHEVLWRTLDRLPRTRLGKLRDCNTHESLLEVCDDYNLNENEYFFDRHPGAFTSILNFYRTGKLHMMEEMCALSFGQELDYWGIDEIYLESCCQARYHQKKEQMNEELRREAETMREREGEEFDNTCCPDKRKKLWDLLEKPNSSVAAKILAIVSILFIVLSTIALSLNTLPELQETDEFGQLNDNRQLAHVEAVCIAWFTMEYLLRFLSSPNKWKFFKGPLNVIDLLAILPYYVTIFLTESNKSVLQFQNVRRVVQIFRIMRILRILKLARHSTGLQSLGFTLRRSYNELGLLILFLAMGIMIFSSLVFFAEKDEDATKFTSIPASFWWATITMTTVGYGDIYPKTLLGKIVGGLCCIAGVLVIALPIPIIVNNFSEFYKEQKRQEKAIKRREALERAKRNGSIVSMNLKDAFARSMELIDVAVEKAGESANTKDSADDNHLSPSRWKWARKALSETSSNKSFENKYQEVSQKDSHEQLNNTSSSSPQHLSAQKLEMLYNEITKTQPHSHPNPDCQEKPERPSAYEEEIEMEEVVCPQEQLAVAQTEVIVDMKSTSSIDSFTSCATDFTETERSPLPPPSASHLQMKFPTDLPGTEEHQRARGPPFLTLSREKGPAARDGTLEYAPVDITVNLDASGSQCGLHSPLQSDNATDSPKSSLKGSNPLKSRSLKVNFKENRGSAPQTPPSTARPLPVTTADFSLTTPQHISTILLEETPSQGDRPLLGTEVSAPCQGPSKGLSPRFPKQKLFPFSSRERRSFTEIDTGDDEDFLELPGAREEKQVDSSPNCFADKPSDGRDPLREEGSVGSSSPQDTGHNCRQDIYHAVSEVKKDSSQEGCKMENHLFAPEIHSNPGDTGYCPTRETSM", "experiment": "Inhibition of voltage-gated K channel 2.2 (unknown origin) by automated patch clamp assay"}, "[23]": {"species_on_record": "Homo sapiens", "experiment": "Selectivity ratio of IC50 for voltage-gated K channel (unknown origin) to human voltage-gated K channel 2.1"}, "[24]": {"species_on_record": "Homo sapiens", "experiment": "Selectivity ratio of IC50 for voltage-gated Na channel (unknown origin) to IC50 for human voltage-gated K channel 2.1"}, "[25]": {"species_on_record": "Homo sapiens", "experiment": "Selectivity ratio of IC50 for voltage-gated K channel (unknown origin) to voltage-gated K channel 2.2 (unknown origin)"}, "[26]": {"experiment": "Agonist activity at AMPA receptor in rat hippocampal neurons by patch clamp technique", "format": "tissue-based", "details": "Hippocampus"}, "[27]": {"target": "Potassium channel subfamily K member 2 (Homo sapiens, UniProt O95069)", "sequence (O95069 whole entry)": "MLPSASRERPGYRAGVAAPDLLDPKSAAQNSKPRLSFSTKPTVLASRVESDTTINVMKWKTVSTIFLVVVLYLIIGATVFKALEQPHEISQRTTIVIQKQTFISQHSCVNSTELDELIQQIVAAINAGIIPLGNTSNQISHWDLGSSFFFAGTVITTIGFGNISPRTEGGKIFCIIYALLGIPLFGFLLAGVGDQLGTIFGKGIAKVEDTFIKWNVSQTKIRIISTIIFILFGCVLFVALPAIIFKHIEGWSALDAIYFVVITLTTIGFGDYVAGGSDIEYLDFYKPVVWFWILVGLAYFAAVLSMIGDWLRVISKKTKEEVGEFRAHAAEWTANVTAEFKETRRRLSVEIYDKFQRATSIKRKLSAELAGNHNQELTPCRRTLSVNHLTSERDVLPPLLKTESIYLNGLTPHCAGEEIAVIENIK", "experiment": "Inhibition of human TREK-1 expressed in HEK293 cells by patch-clamp technique", "format": "cell-based"}, "[28]": {"target": "P2X2/P2X3 heterotrimeric receptor (Homo sapiens, UniProt P56373+Q9UBL9)", "sequence (Q9UBL9 whole entry)": "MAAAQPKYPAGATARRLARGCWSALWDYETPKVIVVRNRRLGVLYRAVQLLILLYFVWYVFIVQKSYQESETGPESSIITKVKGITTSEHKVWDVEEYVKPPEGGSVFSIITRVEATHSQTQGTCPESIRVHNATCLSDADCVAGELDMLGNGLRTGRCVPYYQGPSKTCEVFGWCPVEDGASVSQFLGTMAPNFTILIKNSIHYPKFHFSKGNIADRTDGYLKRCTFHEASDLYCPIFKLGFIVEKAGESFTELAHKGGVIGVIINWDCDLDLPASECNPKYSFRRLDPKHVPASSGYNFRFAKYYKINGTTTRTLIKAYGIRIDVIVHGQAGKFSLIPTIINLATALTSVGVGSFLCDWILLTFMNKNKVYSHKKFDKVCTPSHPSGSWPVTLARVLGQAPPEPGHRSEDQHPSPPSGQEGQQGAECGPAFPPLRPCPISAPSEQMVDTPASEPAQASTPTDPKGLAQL", "sequence (P56373 whole entry)": "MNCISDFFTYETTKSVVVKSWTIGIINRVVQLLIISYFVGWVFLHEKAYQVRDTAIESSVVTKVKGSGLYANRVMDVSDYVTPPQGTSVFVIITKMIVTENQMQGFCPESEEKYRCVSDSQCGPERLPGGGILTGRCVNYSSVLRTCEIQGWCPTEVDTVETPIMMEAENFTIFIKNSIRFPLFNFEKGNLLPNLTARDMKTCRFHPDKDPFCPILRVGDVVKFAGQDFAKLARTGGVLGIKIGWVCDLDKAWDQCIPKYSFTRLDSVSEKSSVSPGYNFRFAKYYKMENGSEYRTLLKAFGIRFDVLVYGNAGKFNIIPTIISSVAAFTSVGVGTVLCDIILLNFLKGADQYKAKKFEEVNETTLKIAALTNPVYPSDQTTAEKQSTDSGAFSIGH", "experiment": "Antagonist activity at human P2X2/3 receptor", "format": "protein-complex assay"}, "[29]": {"target": "Small conductance calcium-activated potassium channel protein 3 (Homo sapiens, UniProt Q9UGI6)", "sequence (Q9UGI6 whole entry)": "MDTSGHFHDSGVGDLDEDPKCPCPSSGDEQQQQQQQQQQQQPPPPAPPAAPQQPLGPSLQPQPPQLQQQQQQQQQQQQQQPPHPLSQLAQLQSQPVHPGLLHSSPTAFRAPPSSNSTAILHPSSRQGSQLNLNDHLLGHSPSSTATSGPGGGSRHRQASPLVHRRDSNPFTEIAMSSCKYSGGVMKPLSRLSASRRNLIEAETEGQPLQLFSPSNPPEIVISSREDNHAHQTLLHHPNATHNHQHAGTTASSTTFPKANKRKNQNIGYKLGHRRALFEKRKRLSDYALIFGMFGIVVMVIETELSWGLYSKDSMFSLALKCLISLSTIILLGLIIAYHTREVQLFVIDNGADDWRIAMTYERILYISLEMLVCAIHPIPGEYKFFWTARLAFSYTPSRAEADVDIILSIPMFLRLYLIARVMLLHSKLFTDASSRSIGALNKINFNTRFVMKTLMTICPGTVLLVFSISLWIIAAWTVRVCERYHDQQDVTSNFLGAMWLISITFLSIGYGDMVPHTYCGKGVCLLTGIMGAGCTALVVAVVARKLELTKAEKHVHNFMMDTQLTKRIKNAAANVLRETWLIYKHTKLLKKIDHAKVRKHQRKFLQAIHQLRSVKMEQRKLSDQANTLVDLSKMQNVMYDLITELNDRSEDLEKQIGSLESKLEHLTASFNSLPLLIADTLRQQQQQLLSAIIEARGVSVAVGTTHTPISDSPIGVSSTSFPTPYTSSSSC", "experiment": "Inhibition of human Kca 2.3 expressed in HEK293 cells by patch clamp technique", "format": "cell-based"}, "[30]": {"target": "Transient receptor potential cation channel subfamily V member 4 (Homo sapiens, UniProt Q9HBA0)", "sequence (Q9HBA0 whole entry)": "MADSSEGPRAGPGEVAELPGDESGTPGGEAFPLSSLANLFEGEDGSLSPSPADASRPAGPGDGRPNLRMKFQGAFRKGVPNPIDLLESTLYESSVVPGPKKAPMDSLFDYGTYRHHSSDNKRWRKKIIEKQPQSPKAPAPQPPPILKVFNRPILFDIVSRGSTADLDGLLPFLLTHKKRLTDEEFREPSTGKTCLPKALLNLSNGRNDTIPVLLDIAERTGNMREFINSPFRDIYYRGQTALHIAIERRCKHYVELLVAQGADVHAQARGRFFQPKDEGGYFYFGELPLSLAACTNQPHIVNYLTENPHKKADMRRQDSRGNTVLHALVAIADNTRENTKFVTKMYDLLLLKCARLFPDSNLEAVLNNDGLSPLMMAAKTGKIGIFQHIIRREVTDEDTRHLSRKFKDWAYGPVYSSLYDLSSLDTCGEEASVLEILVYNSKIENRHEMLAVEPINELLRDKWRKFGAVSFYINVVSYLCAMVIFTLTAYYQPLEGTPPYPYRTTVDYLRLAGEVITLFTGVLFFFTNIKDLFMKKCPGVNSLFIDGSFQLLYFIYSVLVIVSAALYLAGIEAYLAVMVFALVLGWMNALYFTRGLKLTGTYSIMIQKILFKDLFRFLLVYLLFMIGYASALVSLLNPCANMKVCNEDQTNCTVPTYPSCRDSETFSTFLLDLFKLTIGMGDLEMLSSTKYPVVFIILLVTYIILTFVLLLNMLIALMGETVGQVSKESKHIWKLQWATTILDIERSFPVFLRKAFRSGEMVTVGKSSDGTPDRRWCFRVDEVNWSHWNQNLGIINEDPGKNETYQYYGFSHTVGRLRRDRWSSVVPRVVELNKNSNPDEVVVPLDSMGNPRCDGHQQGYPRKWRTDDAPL", "experiment": "Inhibition of TRPV4 (unknown origin)"}}, "data": [{"compound": "N=c1n(Cc2ccccc2)c2ccccc2n1CC(O)CN1CCOCC1", "note": "(stereo unspecified)", "values": [{"measurement": "IC50", "setting": "[1]", "value": 24000, "unit": "nM"}]}, {"compound": "CN[C@@H](C)C/C=C/c1cncc(OC(C)C)c1", "note": "[ISPRONICLINE]", "values": [{"measurement": "EC50", "setting": "[2]", "value": 106, "unit": "nM"}]}, {"compound": "N[C@@H](Cn1cc(I)c(=O)[nH]c1=O)C(=O)O", "values": [{"measurement": "EC50", "setting": "[3]", "value": 140, "unit": "nM"}, {"measurement": "Ratio EC50", "setting": "[4]", "value": 137}]}, {"compound": "Cc1nocc1C(=O)Nc1ccc(-c2ccccc2OC(F)(F)F)c(N)n1", "values": [{"measurement": "Ratio IC50", "setting": "[5]", "value": "> 20"}, {"measurement": "Ratio IC50", "setting": "[6]", "value": "> 20"}, {"measurement": "Ratio IC50", "setting": "[7]", "value": "> 20"}]}, {"compound": "O=C(NCc1ccc(Cl)c(C(F)(F)F)c1)c1ccc(S(=O)(=O)Nc2ncc(Cl)s2)cc1", "values": [{"measurement": "Ratio IC50", "setting": "[8]", "value": "> 1000"}, {"measurement": "IC50", "setting": "[9]", "value": 30, "unit": "nM"}]}, {"compound": "O=c1ccc2c(OCCCCc3ccccc3)c3ccoc3cc2o1", "values": [{"measurement": "Ratio EC50", "setting": "[10]", "value": 17}, {"measurement": "Ratio EC50", "setting": "[11]", "value": 17}, {"measurement": "Ratio EC50", "setting": "[12]", "value": 17}, {"measurement": "Ratio EC50", "setting": "[13]", "value": 17}]}, {"compound": "Cn1ncnc1COc1nn2c(-c3cc(F)ccc3F)nnc2cc1C(C)(C)C", "values": [{"measurement": "Ki", "setting": "[14]", "value": 2.3, "unit": "nM"}, {"measurement": "Activity", "setting": "[15]", "value": 34, "unit": "%"}, {"measurement": "Ki", "setting": "[16]", "value": 0.7, "unit": "nM"}, {"measurement": "Activity", "setting": "[17]", "value": 39, "unit": "%"}, {"measurement": "Ki", "setting": "[18]", "value": 0.7, "unit": "nM"}, {"measurement": "Activity", "setting": "[19]", "value": 36, "unit": "%"}]}, {"compound": "CCCC(=O)C1CCN(c2ncnc3c2CN(C(=O)c2ccc(-c4ccccc4)cc2)CC3)CC1", "values": [{"measurement": "IC50", "setting": "[20]", "value": 300, "unit": "nM"}]}, {"compound": "CC(C)C(=O)Nc1ccc(N(C)C)c(C(=O)N[C@@H](C)c2ccccc2)c1", "values": [{"measurement": "Ratio IC50", "setting": "[21]", "value": "> 10"}, {"measurement": "IC50", "setting": "[22]", "value": 100, "unit": "nM"}, {"measurement": "Ratio IC50", "setting": "[23]", "value": "> 10"}, {"measurement": "Ratio IC50", "setting": "[24]", "value": "> 10"}, {"measurement": "Ratio IC50", "setting": "[25]", "value": "> 10"}]}, {"compound": "N[C@@H](Cn1cc(Cl)c(=O)[nH]c1=O)C(=O)O", "values": [{"measurement": "EC50", "setting": "[3]", "value": 2000, "unit": "nM"}, {"measurement": "EC50", "setting": "[26]", "value": 2000, "unit": "nM"}]}, {"compound": "CCN(CC)CC(=O)Nc1c(C)cccc1C", "note": "[LIDOCAINE]", "values": [{"measurement": "IC50", "setting": "[27]", "value": 180000, "unit": "nM"}]}, {"compound": "Cc1ccc(-c2cc(C(=O)N[C@H](C)c3ccc(F)cn3)cc(-c3ncccc3F)c2)nc1", "values": [{"measurement": "IC50", "setting": "[28]", "value": 8000, "unit": "nM"}]}, {"compound": "Cc1ccn(-c2nc(Nc3ccc(F)cc3)c3ncn(C)c3n2)n1", "values": [{"measurement": "EC50", "setting": "[29]", "value": 20, "unit": "nM"}]}, {"compound": "CC(C)NCCN(C(C)C)S(=O)(=O)c1ccc(Cl)cc1Cl", "values": [{"measurement": "IC50", "setting": "[30]", "value": 2300, "unit": "nM"}]}]}
